Measured values published in patent US11420944B2, “Voltage-dependent t-type calcium channel blocker” (Nippon Chemiphar Co., Ltd., priority 2016, dated 2022).
Where two headings read alike, the source gives them in different places.

Molecular target: T1, human Cav3.2 channels (Homo sapiens, UniProt O95180)
T1 construct: expressed in transfected cells; host or cells: HEK293 cells (ATCC No. CRL-1573), plasmid pcDNA3.1(+)
Assay: Intracellular calcium concentration measurement (Fluo-4 AM) in stable cells expressing human Cav3.2 channels, buffer A / buffer B
Type: cell-based
From the text: Construction of Stable Cells Expressing Human Cav3.2 Channels
(1) A sequence produced by incorporating HindIII site and kozak sequence (GCCACC) into the 5′-terminal side of human Cav3.2 channel ORF (Open Reading Frame) gene and incorporating Kpnl site into the 3′-terminal side was incorporated into pcDNA3.1(+) (Thermo-Fisher Scientific, Inc., #V790-20), and the plasmid was transfected into HEK293 cells (ATCC No. CRL-1573) according to the protocol of FuGENE (registered trademark) HD Transfection Reagent (PROMEGA #E2311).
(2) Method for Measuring Intracellular Calcium Concentration
In the present measurement system, buffer A and buffer B having different potassium ion concentrations were used in order to evaluate the state-dependent Cav3.2 inhibitory action of a test compound.
Stable cell line expressing human Cav3.2 channels, which had been produced in (1), was seeded in a 96-well plate using DMEM medium including 10% FBS, and the cells were cultured for 48 hours under the conditions of 37° C. and 5% CO2. Subsequently, the medium was removed, and various wells that had been washed with a base buffer were treated with 80 μL of a fluorescent dye solution containing a mixed liquid of 22 μg of calcium fluorescence indicator Fluo-4 AM (Dojindo Laboratories Co., Ltd., #F311), 20 μL of DMSO, […] of 10% Pluronic F-127 (Thermo-Fisher Scientific, Inc., #P6866), and 4 mL of a base buffer. The cells were left to stand for 45 minutes at room temperature in the dark, and then the cells were washed with buffer A or buffer B. Solutions having various test compound concentrations and respectively containing buffer A or buffer B were added to the respective wells, the respective solutions containing DMSO at the same final concentration as that of the test compound as negative control, or containing the test compound dissolved in 100% DMSO at a final concentration of 0.1%. The cells were left to stand for another 15 minutes at room temperature in the dark, and the cells were analyzed using the following method using a microplate reader, EnVision (PerkinElmer, Inc.). First, the background fluorescence for each well was measured, subsequently an ionophore was added to the well, and the fluorescence of the baseline was measured. Subsequently, buffer A or buffer B containing added KCl at a concentration of 83.8 mM or 91.8 mM was added to each well, and an increase in fluorescence caused by a calcium influx generated by that stimulus was measured for 10 seconds. The percentage inhibition was calculated from the maximum fluorescence increment from the baseline, and the logarithmic value of the test compound concentration and the inhibitory activity were plotted to calculate the IC50 value. The analysis was carried out by measuring the fluorescence at 510 nm emitted when the cells were irradiated with exciting light at 485 nm.
Base buffer: 140 mM NaCl, 5 mM KCl, 1 mM MgCl2, 0.5 mM CaCl2, 10 mM Glucose, and 10 mM HEPES, pH 7.3
Buffer A: Equilibrium potential of potassium: −92 mV

[1] = Tables 2 to 6, buffer A, equilibrium potential of potassium −92 mV, read-out: Inhibitory action of buffer A (inactivated state)
[2] = Table 1, buffer A, equilibrium potential of potassium −92 mV, read-out: Inhibitory action of buffer A (inactivated state)
[3] = Table 1, buffer B, equilibrium potential of potassium −110 mV, read-out: Inhibitory action of buffer B (resting state or closed state)

T1 sequence (O95180 whole entry): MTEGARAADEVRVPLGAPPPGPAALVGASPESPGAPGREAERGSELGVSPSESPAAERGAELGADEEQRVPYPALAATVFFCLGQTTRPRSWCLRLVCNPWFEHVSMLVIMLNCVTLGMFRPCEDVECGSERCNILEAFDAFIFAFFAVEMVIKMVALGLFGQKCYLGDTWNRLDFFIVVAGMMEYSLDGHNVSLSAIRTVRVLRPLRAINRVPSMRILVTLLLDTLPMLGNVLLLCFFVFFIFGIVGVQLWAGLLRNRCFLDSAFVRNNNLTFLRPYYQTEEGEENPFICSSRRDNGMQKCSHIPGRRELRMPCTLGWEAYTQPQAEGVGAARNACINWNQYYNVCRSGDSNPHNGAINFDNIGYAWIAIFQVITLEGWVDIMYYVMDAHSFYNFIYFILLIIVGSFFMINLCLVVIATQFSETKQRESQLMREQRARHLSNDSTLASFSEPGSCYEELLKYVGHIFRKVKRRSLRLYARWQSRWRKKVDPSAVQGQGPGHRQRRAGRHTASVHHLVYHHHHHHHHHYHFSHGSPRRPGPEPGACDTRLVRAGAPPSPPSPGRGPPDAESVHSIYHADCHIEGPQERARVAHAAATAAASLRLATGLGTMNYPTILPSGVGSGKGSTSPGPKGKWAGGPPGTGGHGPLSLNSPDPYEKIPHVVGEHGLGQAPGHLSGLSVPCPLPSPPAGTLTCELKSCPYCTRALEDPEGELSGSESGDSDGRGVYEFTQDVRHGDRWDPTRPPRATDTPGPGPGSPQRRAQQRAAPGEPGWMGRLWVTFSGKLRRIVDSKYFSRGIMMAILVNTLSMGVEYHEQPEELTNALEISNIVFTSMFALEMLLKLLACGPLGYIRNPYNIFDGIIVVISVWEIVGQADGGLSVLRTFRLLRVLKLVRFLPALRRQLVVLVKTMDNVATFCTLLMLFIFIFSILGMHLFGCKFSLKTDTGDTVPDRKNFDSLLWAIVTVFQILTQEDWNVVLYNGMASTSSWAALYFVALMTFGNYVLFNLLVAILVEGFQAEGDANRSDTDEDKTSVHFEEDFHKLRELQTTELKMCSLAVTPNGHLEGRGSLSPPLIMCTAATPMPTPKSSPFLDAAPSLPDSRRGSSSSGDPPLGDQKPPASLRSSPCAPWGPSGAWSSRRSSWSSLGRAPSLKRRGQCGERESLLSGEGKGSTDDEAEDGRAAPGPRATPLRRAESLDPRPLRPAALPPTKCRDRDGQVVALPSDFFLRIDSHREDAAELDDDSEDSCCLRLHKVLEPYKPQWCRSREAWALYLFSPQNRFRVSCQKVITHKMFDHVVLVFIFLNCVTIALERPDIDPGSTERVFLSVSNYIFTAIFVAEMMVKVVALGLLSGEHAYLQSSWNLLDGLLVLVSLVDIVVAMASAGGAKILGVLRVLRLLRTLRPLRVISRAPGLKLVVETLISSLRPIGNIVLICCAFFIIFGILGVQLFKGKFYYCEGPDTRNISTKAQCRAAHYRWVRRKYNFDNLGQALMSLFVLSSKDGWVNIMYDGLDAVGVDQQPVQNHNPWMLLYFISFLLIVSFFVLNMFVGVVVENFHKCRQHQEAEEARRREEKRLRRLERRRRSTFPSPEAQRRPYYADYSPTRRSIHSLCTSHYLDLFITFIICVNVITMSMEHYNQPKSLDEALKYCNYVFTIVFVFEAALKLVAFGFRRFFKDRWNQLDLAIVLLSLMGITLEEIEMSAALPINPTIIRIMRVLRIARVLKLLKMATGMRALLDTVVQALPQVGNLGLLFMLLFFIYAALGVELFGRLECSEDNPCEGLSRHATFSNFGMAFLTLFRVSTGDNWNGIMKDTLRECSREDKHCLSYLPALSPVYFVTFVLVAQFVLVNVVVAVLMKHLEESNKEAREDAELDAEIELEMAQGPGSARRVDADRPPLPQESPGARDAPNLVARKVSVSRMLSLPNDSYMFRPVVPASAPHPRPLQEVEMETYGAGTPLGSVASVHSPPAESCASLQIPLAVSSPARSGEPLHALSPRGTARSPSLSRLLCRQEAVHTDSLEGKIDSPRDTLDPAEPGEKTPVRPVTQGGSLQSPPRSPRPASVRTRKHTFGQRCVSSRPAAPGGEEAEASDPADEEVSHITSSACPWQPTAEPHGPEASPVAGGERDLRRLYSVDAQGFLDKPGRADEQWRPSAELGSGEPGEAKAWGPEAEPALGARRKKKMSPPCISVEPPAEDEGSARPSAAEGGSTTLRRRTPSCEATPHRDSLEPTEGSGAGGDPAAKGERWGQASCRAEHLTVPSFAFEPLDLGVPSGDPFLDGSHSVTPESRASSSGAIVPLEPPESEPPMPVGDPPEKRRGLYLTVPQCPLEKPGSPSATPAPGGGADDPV

IC50 [1] [nM] | IC50 [2] [nM] | IC50 [3] [nM] | Compound
> 10000 |  |  | C[C@@H](NC(=O)C1CC1c1nc2cnccc2[nH]1)c1ccc(OCC(F)(F)F)s1 (mixture of isomers) [Example 28, Trans-2-(1H-imidazo[4,5-c]pyridin-2-yl)-N—((R)-1-(5-(2,2,2-trifluoroethoxy)thiophen-2-yl)ethyl)cyclopropane-1-carboxamide]
 | 100 to 1000 | > 10000 | Cc1cc([C@@H](C)NC(=O)C2CC2c2nc3ccccc3[nH]2)sc1OCC(F)(F)F (single isomer, unassigned) [Example 1A]
 | 1000 to 10000 |  | Cc1cc([C@@H](C)NC(=O)C2CC2c2nc3ccccc3[nH]2)sc1OCC(F)(F)F (single isomer, unassigned) [Example 1B]
 | 1000 to 10000 | > 10000 | C[C@H](NC(=O)C1CC1c1nc2ccccc2[nH]1)c1ccc(OCC(F)(F)F)s1 (single isomer, unassigned) [Example 2A]
 | 1000 to 10000 | > 10000 | C[C@H](NC(=O)C1CC1c1nc2ccccc2[nH]1)c1ccc(OCC(F)(F)F)s1 (single isomer, unassigned) [Example 2B]
 | 1000 to 10000 | 1000 to 10000 | C[C@@H](NC(=O)C1CC1c1nc2ccccc2[nH]1)c1ccc(OCC(F)(F)F)s1 (single isomer, unassigned) [Example 3B]
 | 1000 to 10000 | > 10000 | C[C@@H](NC(=O)C1CC1c1nc2ccccc2n1C)c1ccc(OCC(F)(F)F)s1 (single isomer, unassigned) [Example 4B]
 | 1000 to 10000 | 1000 to 10000 | C[C@@H](NC(=O)C1CC1c1nc2ccccc2[nH]1)c1ccc(C(F)(F)F)s1 (single isomer, unassigned) [Example 5B]
 | 100 to 1000 | 1000 to 10000 | C[C@@H](NC(=O)C1CC1c1nc2ccccc2[nH]1)c1ccc(Br)s1 (single isomer, unassigned) [Example 6A]
 | 1000 to 10000 | > 10000 | C[C@@H](NC(=O)C1CC1c1nc2ccccc2[nH]1)c1ccc(Br)s1 (single isomer, unassigned) [Example 6B]
 | 1000 to 10000 | > 10000 | C[C@H](NC(=O)C1CC1c1nc2ccccc2[nH]1)c1cnc(OCC(F)(F)F)s1 (single isomer, unassigned) [Example 7A]
 | 1000 to 10000 | > 10000 | C[C@H](NC(=O)C1CC1c1nc2ccccc2[nH]1)c1cnc(OCC(F)(F)F)s1 (single isomer, unassigned) [Example 7B]
 | > 10000 |  | C[C@@H](NC(=O)C1CC1c1nc2ccccc2[nH]1)c1cnc(OCC(F)(F)F)s1 (single isomer, unassigned) [Example 8B]
 | 1000 to 10000 | > 10000 | C[C@@H](NC(=O)C1CC1c1nc2ccccc2[nH]1)c1ncc(Br)s1 (single isomer, unassigned) [Example 11A]
 | > 10000 |  | C[C@@H](NC(=O)C1CC1c1nc2ccccc2[nH]1)c1ncc(Br)s1 (single isomer, unassigned) [Example 11B]
> 10000 |  |  | C[C@@H](NC(=O)C1CC1c1cc(F)cc(F)c1)c1ccc(OCC(F)(F)F)s1 (single isomer, unassigned) [Example 19A]
> 10000 |  |  | C[C@@H](NC(=O)C1CC1c1cc(F)cc(F)c1)c1ccc(OCC(F)(F)F)s1 (single isomer, unassigned) [Example 19B]
100 to 1000 |  |  | C[C@@H](NC(=O)C1CC1c1ccc2cnn(C)c2c1)c1ccc(OCC(F)(F)F)s1 (single isomer, unassigned) [Example 22B]
1000 to 10000 |  |  | C[C@@H](NC(=O)C1CC1c1ccccn1)c1ccc(OCC(F)(F)F)s1 (single isomer, unassigned) [Example 23A]
> 10000 |  |  | C[C@@H](NC(=O)C1CC1c1ccccn1)c1ccc(OCC(F)(F)F)s1 (single isomer, unassigned) [Example 23B]
> 10000 |  |  | C[C@@H](NC(=O)C1CC1c1nc2ccccc2[nH]1)c1ccc(C(=O)O)s1 (single isomer, unassigned) [Example 27]
> 10000 |  |  | C[C@@H](NC(=O)C1CC1c1cn(C)c2ccccc12)c1ccc(OCC(F)(F)F)s1 (single isomer, unassigned) [Example 29A]
> 10000 |  |  | C[C@@H](NC(=O)C1CC1c1cn(C)c2ccccc12)c1ccc(OCC(F)(F)F)s1 (single isomer, unassigned) [Example 29B]

IC50 [1] [nM] | IC50 [2] [nM] | IC50 [3] [nM] | Compound
> 10000 |  |  | C[C@@H](NC(=O)C1CC1c1nc2ccccc2[nH]1)c1ccc(C(N)=O)s1 (single isomer, unassigned) [Example 30]
100 to 1000 |  |  | C[C@@H](NC(=O)C1CC1c1nc(-c2ccccc2)c[nH]1)c1ccc(OCC(F)(F)F)s1 (single isomer, unassigned) [Example 31B]
100 to 1000 |  |  | C[C@@H](NC(=O)C1CC1c1ccc2ccccc2n1)c1ccc(OCC(F)(F)F)s1 (single isomer, unassigned) [Example 34B]
1000 to 10000 |  |  | C[C@@H](NC(=O)C1CC1c1nc2cccnc2[nH]1)c1ccc(OCC(F)(F)F)s1 (single isomer, unassigned) [Example 35]
> 10000 |  |  | C[C@@H](NC(=O)C1CC1c1nccn1Cc1ccccc1)c1ccc(OCC(F)(F)F)s1 (single isomer, unassigned) [Example 38A]
> 10000 |  |  | C[C@@H](NC(=O)C1CC1c1nccn1Cc1ccccc1)c1ccc(OCC(F)(F)F)s1 (single isomer, unassigned) [Example 38B]
> 10000 |  |  | C[C@@H](NC(=O)C1CC1c1nc2ccccc2o1)c1ccc(OCC(F)(F)F)s1 (single isomer, unassigned) [Example 40A]
> 10000 |  |  | C[C@@H](NC(=O)C1CC1c1nc2ccccc2o1)c1ccc(OCC(F)(F)F)s1 (single isomer, unassigned) [Example 40B]
≤ 100 |  |  | CC(C)[C@@H](NC(=O)C1CC1c1nc2ccccc2[nH]1)c1ccc(OCC(F)(F)F)s1 (single isomer, unassigned) [Example 44]
100 to 1000 |  |  | C[C@@H](NC(=O)C1CC1c1ccc2ccccc2n1)c1ccc(Br)s1 (single isomer, unassigned) [Example 45]
≤ 100 |  |  | C[C@@H](NC(=O)C1CC1c1cn(C)c2ccccc12)c1cnc(OCC(F)(F)F)s1 (single isomer, unassigned) [Example 48]
≤ 100 |  |  | C[C@@H](NC(=O)C1CC1c1nc2cc(Cl)ccc2[nH]1)c1ccc(OCC(F)(F)F)s1 (single isomer, unassigned) [Example 53A]
100 to 1000 |  |  | C[C@@H](NC(=O)C1CC1c1nc2cc(Cl)ccc2[nH]1)c1ccc(OCC(F)(F)F)s1 (single isomer, unassigned) [Example 53B]
100 to 1000 |  |  | CCn1c(C2CC2C(=O)N[C@H](C)c2cnc(OCC(F)(F)F)s2)nc2ccccc21 (single isomer, unassigned) [Example 57A]
1000 to 10000 |  |  | CCn1c(C2CC2C(=O)N[C@H](C)c2cnc(OCC(F)(F)F)s2)nc2ccccc21 (single isomer, unassigned) [Example 57B]
1000 to 10000 |  |  | C[C@@H](NC(=O)C1CC1c1nc2cc(Cl)ccc2[nH]1)c1cnc(OCC(F)(F)F)s1 (single isomer, unassigned) [Example 64B]
100 to 1000 |  |  | COc1ccc2[nH]c(C3CC3C(=O)N[C@H](C)c3ccc(OCC(F)(F)F)s3)nc2c1 (single isomer, unassigned) [Example 71A]
100 to 1000 |  |  | COc1ccc2[nH]c(C3CC3C(=O)N[C@H](C)c3ccc(OCC(F)(F)F)s3)nc2c1 (single isomer, unassigned) [Example 71B]
100 to 1000 |  |  | C[C@@H](NC(=O)C1CC1c1nc2cc(Cl)ccc2[nH]1)c1nc(C2CC2)no1 (single isomer, unassigned) [Example 77A]
1000 to 10000 |  |  | C[C@@H](NC(=O)C1CC1c1nc2cc(Cl)ccc2[nH]1)c1nc(C2CC2)no1 (single isomer, unassigned) [Example 77B]
1000 to 10000 |  |  | C[C@@H](NC(=O)C1CC1c1nc2cc(Cl)cnc2[nH]1)c1ccc(OCC(F)(F)F)s1 (single isomer, unassigned) [Example 85A]
> 10000 |  |  | C[C@@H](NC(=O)C1CC1c1nc2cc(Cl)cnc2[nH]1)c1ccc(OCC(F)(F)F)s1 (single isomer, unassigned) [Example 85B]
